Legend:
[1] = test system: Trichophyton mentagrophytes; test: Microbiology efficacy test, formulations applied to paper disks, zone of inhibition; type: cell-based; conditions: T. mentagrophytes; 50 microliters on 1/2 inch paper disk, air dried; Potato Dextrose Agar; average results
Source text: (§1) Each test formulation (50 microliters) was pipetted onto sterile ½ inch paper disks and was allowed to air dry. Spore suspensions of Trichophyton mentagrophytes and Trichophyton rubrum, were made using standard microbiological techniques. The resulting suspensions contained approximately 10,000,000 spores per milliliter. Sterile swabs were used to distribute the spore suspensions over the surface of Potato Dextrose Agar plates and one sample disk was placed in the center of each plate.

Trichophyton rubrum = test: as above; type: cell-based; conditions: T. rubrum; 50 microliters on 1/2 inch paper disk, air dried; Potato Dextrose Agar; average results
Source text: as §1

T. mentagrophytes = test: Formulations applied to artificial nail (IMS VITRO-NAILS), zone of inhibition; type: cell-based, Trichophyton mentagrophytes
Source text: Each test formulation (50 microliters) was pipetted onto sterile ½ inch paper disks and was allowed to air dry. Spore suspensions of Trichophyton mentagrophytes and Trichophyton rubrum, were made using standard microbiological techniques. The resulting suspensions contained approximately 10,000,000 spores per milliliter. Sterile swabs were used to distribute the spore suspensions over the surface of Potato Dextrose Agar plates and one sample disk was placed in the center of each plate. As an additional test, a synthetic nail substrate, IMS VITRO-NAILS, was used to simulate permeation of the active through a human nail. This material is reported to have the wetting properties, thickness and flexibility of human nails. This experiment was conducted in the same manner as first experiment above, except that the formulations were pipetted onto ¾-1 inch squares of VITRO-NAILS and either allowed to dry for 2 days before testing or place directly on the inoculated agar plates while wet.

Cc1cc(C2CCCCC2)n(O)c(=O)c1 [Ciclopirox]
Zone of Inhibition [1]: 16.0 mm | Zone of Inhibition (Trichophyton rubrum): 19.0 mm | Zone of Inhibition, Tested Dry (T. mentagrophytes; allowed to dry for 2 days before testing): 8.75 mm | Zone of Inhibition, Tested Wet (T. mentagrophytes; placed directly on inoculated agar plates while wet): 9 mm

Source: patent publication US20090298805A1, “TOPICAL PYRITHIONE COMPOSITIONS AND METHODS FOR TREATMENT OF NAIL FUNGUS” (priority 2008, published 2009)
